Data taken from patent US9079821B2, “Quinone based nitric oxide donating compounds” (NICOX S.A., priority 2011, dated 2015).

Experiments:
mdx mice = experiment: Mouse model of Duchenne Muscle Distrophy (whole body tension in mdx mice); format: in vivo; settings: for WBT5: average of top 5 FPTs divided by body weight; for WBT10: average of top 10 FPTs divided by body weight
Method: The effects of the compound (6) on muscle function were assessed in mdx mice, which are genetically and biochemically homologous to human DMD. Animals of 4 weeks of age were treated for 3 months with the compound (6) at two different doses (30 and 100 mg/kg), which was incorporated into the diet. Control mdx and wild-type mice were fed the same diet without any drug. To determine if treatment with the compound would ameliorate muscle function in mdx mice, we evaluated the whole body tension which is a measure of the total muscle force. Indeed, this assay, well described in the Treat-NMD standard procedures for the preclinical studies in DMD, is used to determine the ability of mice to exert tension in a pulling maneuver that is elicited by stroking the tail. It is thought to reflect the maximal acute phasic force of the mouse can achieve to escape a potentially harmful event. Briefly, each mouse was placed at the entry of a polyvinyl chloride tube that had been lined interiorly with an aluminum screen, and the tail of the mouse was connected to a tension transducer. Forward pulling movements were elicited by a standardized stroke of the tail with serrated forceps and the corresponding forward pulling tensions (FPTs) were recorded using a Biopac recording system. Between 15 and 20 FPTs were generally recorded during each session. The whole body tension 5 (WBT5) and WBT10 were obtained by dividing the average of the top 5 or top 10 FPTs, respectively, by the body weight.
Table.1 Whole Body Tension (WBT) measured in wild-type and mdx control mice and in mdx mice treated with two different doses of NCX 1443 (30 and 100 mg/kg) incorporated in the diet. Data are presented as mean±standard deviation. For each group, n=8-10 mice. *p<0.05 vs mdx vehicle, ^###p<0.001 vs wild-type (wt) mice, 1-way ANOVA followed by Tuckey post-hoc test.

[1] = tested on: rat L-NAME-induced hypertension; experiment: Rat L-NAME-induced hypertension, systolic blood pressure after single oral dose; format: in vivo; settings: for Delta vs basal (mmHg): Comp. (6) 100 mg/kg oral, L-NAME 50 mg/kg i.p.
Method: To assess the in vivo NO-dependent activity, Compound (6) was evaluated for systolic blood pressure (SBP) reduction efficacy in a rat model of NO-deprivation induced by L-NAME and compared with 5-ISMN.
(§1) Fasted male SD rats (250-300 g, n=3-5 per group), obtained from Harlan Italy (Correzzana, Milan, Italy) were orally treated with tested compounds or vehicle (DMSO:Methocel 1% 2/98 v/v) in a total volume of 4 ml/kg by gavage. At each time point (1, 3, 6 and 24 h) animals were deeply anesthetized with Zoletil® 100 (3 mg/kg), given intramuscularly. Thereafter, a pressure catheter (Samba Sensors, Harvard Apparatus, UK) was introduced into the common carotid artery for central blood pressure measurement. Pressure transducer was connected to a personal computer, in order to allow real time monitor of the pressure tracing. After 10 minutes of basal recording, L-NAME (50 mg/kg) was administered intraperitoneally and the effect on SBP monitored. When the SBP stabilized (5 minutes without variations) the recording was stopped. To further confirm that functional activity was NO-dependent, at each time point blood ^15N-nitrite levels were measured following the procedure described in Example 12.

[2] = tested on: NADPH-induced lipidic peroxidation of membrane lipids (hepatic microsomal membranes); experiment: In vitro antioxidant activity (TBARS test), Method A (ADP-FeCl3 and NADPH); format: biochemical, rat; settings: inhibition of TBARS production after 30 min incubation, read-out: Antioxidant activity IC50 μM (CL 95%)
Method: The antioxidant properties of compounds (6) (disclosed in example 1) and compound (23) (disclosed in example 19) and reference antioxidant compounds were assessed after NADPH-induced lipidic peroxidation of membrane lipids in rat hepatocytes using the detection of 2-thiobarbituric acid reactive substances (TBARS) by visible spectroscopy.
Hepatic microsomal membranes from male Wistar rats (200-250 g) were prepared by differential centrifugation (8000 g, 20 min; 120000 g, 1 h) in a HEPES/sucrose buffer (10 mM, 250 mM, pH 7.4) and stored at −80° C. Incubation was performed at 37° C. in a Tris-HCl/KCl (100 mM/150 mM, pH 7.4) containing microsomal membranes (2 mg prot/mL), sodium ascorbate (100 μM), and DMSO solutions of the tested compounds. Lipid peroxidation was initiated by adding ADP-FeCl3 and NADPH (Method A) or 2.5 μM FeSO4 (Method B) (as described by Boschi D. et al., J. Med. Chem. 2006, 49:2886-2897). Aliquots were taken from the incubation mixture at 5, 15, and 30 min and treated with trichloroacetic acid (TCA) 10% w/v. Lipid peroxidation was assessed by spectrophotometric (543 nm) determination of the TBARS consisting mainly of malondialdehyde (MDA). TBARS concentrations (expressed in nmol/mg protein) were obtained by interpolation with a MDA standard curve. The antioxidant activity of tested compounds was evaluated as the percent inhibition of TBARS production with respect to control samples, using the values obtained after 30 min of incubation. IC50 values were calculated by nonlinear regression analysis.

[3] = tested on: rat L-NAME-induced hypertension; experiment: In vivo tolerance evaluation (L-NAME-induced hypertension after 5-day oral treatment); settings: for Delta vs basal (mmHg): peak effect 3 hours
Method: as §1
To investigate whether the compound (6) induced nitrate tolerance, as observed for most of the drugs belonging to the nitrate class, the L-NAME-induced hypertension rat model described in Example 7 was performed following a repeated oral treatment. Rats were orally treated for 5 days with vehicle, compound (6) (100 mg/kg) or 5-ISMN (30 mg/kg). […] The experiments were performed at the peak effect (1 hour for 5-ISMN and 3 hours for Compound (6)), results are reported in Table 3.

[4] = 30 mg/kg/day in the diet for 3 months
[5] = 100 mg/kg/day in the diet for 3 months

## COC1=C(OC)C(=O)C(CCCCCCCCCCO[N+](=O)[O-])=C(C)C1=O [Compound (6), 10-(4,5-dimethoxy-2-methyl-3,6-dioxocyclohexa-1,4-dienyl)decyl nitrate]
Mdx mice; [4]
  WBT5: 3.6 ± 0.7^###
  WBT10: 3.0 ± 0.7^###
Mdx mice; [5]
  WBT5: 4.1 ± 0.8^###*
  WBT10: 3.4 ± 0.6^###*
Mdx mice; 30 and 100 mg/kg in the diet for 3 months
  effect on muscle function, in words: showed a dose-response trend in improving muscle function reaching a significant effect at the dose of 100 mg/kg
[1]; 1 hour
  Delta vs basal (mmHg): 53.5 ± 4.5 mmHg
[1]; 3 hours
  Delta vs basal (mmHg): 14 ± 3.8 mmHg
[1]; 6 hours
  Delta vs basal (mmHg): 38 ± 3.6 mmHg
[1]; 24 hours
  Delta vs basal (mmHg): 67.7 ± 16.8 mmHg
[1]; Compound (6) 100 mg/kg, single oral administration
  time over which L-NAME induced SBP increase was prevented after treatment: 6 h
[2]
  IC50: 2 µM
[3]; acute treatment, Comp. (6) 100 mg/kg oral
  Delta vs basal (mmHg): 14 ± 3.8 mmHg
[3]; compound (6) 100 mg/kg oral, 5 days
  efficacy against L-NAME-induced hypertension after 5-day treatment (nitrate tolerance), in words: counteracted L-NAME-induced hypertension after 5-day oral treatment
[3]; repeated (5 days) oral treatment, Comp. (6) 100 mg/kg
  Delta vs basal (mmHg): 27.8 ± 4 mmHg
